From patent publication US20240190916A1, “NOVEL PEPTIDE” (HYSENSBIO, priority 2022, published 2024)

Key:
[1] = system: BSP; assay: Western blot of BSP protein in human dental pulp cells; format: cell-based; details: 1, 10, and 50 ug, FIG. 3
Experimental: (§1) FIG. 3 is a result of confirming expressions of DSP and BSP proteins by Western blot after treating human dental pulp cells with the novel peptide (SEQ ID NO: 1) in a concentration-dependent manner (1, 10, and 50 ug) to confirm the effect of novel peptides on expressions of marker proteins for differentiation of odontoblasts, osteoblasts and cementoblasts.

[2] = system: DSP; assay: Western blot of DSP protein in human dental pulp cells; format: cell-based; details: 1, 10, and 50 ug, FIG. 3
Experimental: as §1

[3] = system: DSPP gene; assay: DSPP mRNA level by real-time PCR in human dental pulp cells; format: cell-based; details: peptide 10 ug/ml, compared to untreated control
Experimental: Human pulp tissue cells were isolated from wisdom teeth of 10 adults (18-22 years old) at Seoul National University Dental Hospital. Specifically, all experiments were performed with the patient's consent after approval from the hospital's Institutional Review Board, and wisdom teeth are cut according to a method of Jung H S et al (J Mol Histol. (2011)), exposing the pulp and isolating the pulp with forceps. The isolated pulp was minced on both sides, placed in a 60 mm dish, covered with a cover slip, and then cultured in Dulbecco's Modified Eagle medium. It is known that human dental pulp cells can differentiate into odontoblasts, osteoblasts, cementoblasts and periodontal ligament cells under various conditions (Tissue Eng Part A. 2014 April; 20(7-8): 1342-51).
(§2) Total RNA of human dental pulp cells and mesenchymal stem cells was isolated using a TRIzol reagent. cDNA was synthesized using 2 μg of total RNA, 1 μl of reverse transcriptase, and 0.5 μg of oligo (dT). The synthesized cDNA was used for real-time polymerase chain reaction. The real-time polymerase chain reaction was performed in ABI PRISM 7500 sequence detection system (Applied Biosystems) using SYBR GREEN PCR Master Mix (Takara, Japan). The real-time polymerase chain reaction was performed at 94° C., 1 min; 95° C., 15 sec-60° C., 34 sec was performed under the condition of repeating 40 cycles. An analysis of the results was evaluated using a comparative cycle threshold (CT) method, and primer base sequences are listed in Table 9.
The effect of each group of peptides on DSPP mRNA expression was confirmed by real-time PCR (Table 10).

[4] = system: BSP gene; assay: BSP mRNA level by real-time PCR in human-derived mesenchymal stem cells; format: cell-based; details: compared to untreated control
Experimental: (§3) It was cultured at 37° C. in humid air containing 5% CO2 and used for the experiment. Human mesenchymal stem cells (hBMSCs) were purchased from Lonza (LONZA, Switzerland) and used. hBMSCs were cultured in a-MEM (Invitrogen) medium supplemented with 10% heat-inactivated bovine serum.
as §2
(§4) BSP and DMP1 genes are used as markers for differentiation of osteoblasts and cementoblasts, and are known as important genes for calcification of a bone and cementum. The effects of each group of peptides on BSP and DMP1 mRNA expression were confirmed by a real-time PCR (Tables 11 and 12).

[5] = system: human dental pulp cells (hDPCs) transplanted into the subcutaneous tissue of mice with impaired immune systems; assay: In vivo transplantation of hDPCs with HA/TCP and histological analysis
Experimental: Human dental pulp cells (hDPCs) were isolated and used for in vivo transplantation experiments. hDPCs (2×10^6 cells) were mixed with 100 mg of hydroxy apatite/tricalcium phosphate (HA/TCP) ceramic powder (Zimmer, USA) alone or along with peptides (10 μg) or 0.5% fibrin gel, and then transplanted into mice (NIH-bg-nu-xid; Harlan Laboratories, Indianapolis, IN) with damaged immune systems for 6 and 12 weeks. Thereafter, samples were harvested, fixed in 4% paraformaldehyde, decalcified in 10% EDTA (pH 7.4), embedded in paraffin, and stained with hematoxylin-eosin (H-E) (Vector Labs).

[6] = system: DMP1 gene; assay: DMP1 mRNA level by real-time PCR in human-derived mesenchymal stem cells; format: cell-based; details: compared to untreated control
Experimental: as §3, §2, §4

[7] = system: damaged dentin of beagle dog's teeth; assay: Dentin regeneration in dentin damage model; format: in vivo; details: 10 ug per tooth, 3 weeks after application, vs control group, FIG. 4
Experimental: Three beagle dogs (12-16 kg; […]) were anesthetized by inhalation of Geloran, intravenously injected with Zoletil (5 mg/kg) and Xylazine (0.2-0.5 mg/kg), and then treated with Lidocaine (Lidocaine 2% with 1:80,000 epinephrine). After damaging the dentin of the premolars and molar teeth in the mandible of the beagle dog using a dental bur, 10 ug of SEQ ID NO: 1 peptide of group 1 was treated per tooth. After 6 weeks, a beagle dog was sacrificed by administering an excessive amount (90-120 mg/kg) of pentobarbital. The tooth of the beagle dog was extracted, fixed with 10% formalin, calcium was removed by adding 5% formic acid, molded, and embedded in paraffin, and then a tissue section with a thickness of 5 μm were obtained, a obtained tissue section was stained with hematoxylin and eosin, and then analyzed using by an optical microscope equipped with a digital camera (LEICA ICC50 camera, Germany).
FIG. 4 is the result of histological evaluation 3 weeks after application of 10 ug of the novel peptide (SEQ ID NO: 1) after damaging the dentine of beagle dog's teeth in order to confirm that the novel peptide induces physiological dentin regeneration in a animal model of damaged dentin.

| Sequence | expression of BSP protein (marker for differentiation of osteoblasts and cementoblasts) [1] | expression of DSP protein (marker for differentiation of odontoblasts) [2] | mRNA level of DSPP gene, Average [3] | mRNA level of BSP gene, BSP gene expression, Average [4] | periodontal ligament formation, hematoxylin-eosin histology ([5]; 10 ug peptide with hDPCs, 6 weeks after transplantation, vs hDPCs-only control, FIG. 6) | proportion of hard tissue formation ([5]; 10 ug peptide with hDPCs, 12 weeks after transplantation, vs hDPCs-only control, FIG. 5) | hard tissue (bone/cementum-like tissue) formation, hematoxylin-eosin histology ([5]; hDPCs with HA/TCP, 12 weeks after transplantation, FIG. 5) | mRNA level of DMP1 gene, DMP1 gene expression, Average [6] | physiological dentin regeneration, histological evaluation [7] |
| --- | --- | --- | --- | --- | --- | --- | --- | --- | --- |
| KYKAKKKNYK [SEQ ID NO: 1] | increased in a concentration-dependent manner | increased in a concentration-dependent manner | 9.028 fold | 2.892 fold | periodontal ligament fiber bundle (black triangle) were formed | increased | more similar hard tissue formation as the BMP-2 treated group compared to the control group | 11.401 fold | physiological dentin was formed in the lower part the damaged dentine |
| KYKARRRSYK [SEQ ID NO: 15] |  |  | 3.620 fold | 2.119 fold |  |  |  | 8.991 fold |  |
| KYRAKKKNYK [SEQ ID NO: 17] |  |  | 2.192 fold | 2.392 fold |  |  |  | 9.400 fold |  |
| KYRAKKKSYK [SEQ ID NO: 25] |  |  | 1.919 fold | 2.152 fold |  |  |  | 9.055 fold |  |
| KYRAKKRNYK [SEQ ID NO: 18] |  |  | 2.061 fold | 2.316 fold |  |  |  | 9.161 fold |  |
| KYRAKKRSYK [SEQ ID NO: 26] |  |  | 1.811 fold | 2.081 fold |  |  |  | 8.991 fold |  |
| KYRAKRKNYK [SEQ ID NO: 19] |  |  | 1.772 fold | 2.537 fold |  |  |  | 8.999 fold |  |
| KYRAKRKSYK [SEQ ID NO: 27] |  |  | 1.620 fold | 2.195 fold |  |  |  | 8.537 fold |  |
| KYRAKRRNYK [SEQ ID NO: 21] |  |  | 2.167 fold | 1.995 fold |  |  |  | 9.100 fold |  |
| KYRAKRRSYK [SEQ ID NO: 29] |  |  | 2.125 fold | 1.978 fold |  |  |  | 9.525 fold |  |
| KYRARKKNYK [SEQ ID NO: 20] |  |  | 1.702 fold | 2.91 fold |  |  |  | 8.537 fold |  |
| KYRARKKSYK [SEQ ID NO: 28] |  |  | 2.311 fold | 2.084 fold |  |  |  | 9.198 fold |  |
| KYRARKRNYK [SEQ ID NO: 24] |  |  | 2.021 fold | 2.276 fold |  |  |  | 9.333 fold |  |
| KYRARKRSYK [SEQ ID NO: 32] |  |  | 1.861 fold | 1.893 fold |  |  |  | 8.107 fold |  |
| KYRARRKNYK [SEQ ID NO: 22] |  |  | 2.005 fold | 1.893 fold |  |  |  | 7.997 fold |  |
| KYRARRKSYK [SEQ ID NO: 30] |  |  | 1.836 fold | 2.222 fold |  |  |  | 8.683 fold |  |
| KYRARRRNYK [SEQ ID NO: 23] |  |  | 1.915 fold | 2.037 fold |  |  |  | 9.105 fold |  |
| KYRARRRSYK [SEQ ID NO: 31] |  |  | 1.620 fold | 1.798 fold |  |  |  | 9.100 fold |  |
